Data: PMC3345971 (Bioorganic & medicinal chemistry, 2012)
pIC50: −log10 of the molar value.

What was measured:
SERT = conditions: cited from earlier work
DAT = conditions: cited from earlier work; for pIC50: read-out: DAT IC50, oxatropenes substituted at the C3 position
[1] = target: human dopamine transporter (hDAT) (Macaca fascicularis, UniProt Q9GJT6); test: Inhibition of [3H]WIN35,428 binding to the dopamine transporter; conditions: DAT over SERT
Sequence of human dopamine transporter (hDAT) (Q9GJT6 whole entry): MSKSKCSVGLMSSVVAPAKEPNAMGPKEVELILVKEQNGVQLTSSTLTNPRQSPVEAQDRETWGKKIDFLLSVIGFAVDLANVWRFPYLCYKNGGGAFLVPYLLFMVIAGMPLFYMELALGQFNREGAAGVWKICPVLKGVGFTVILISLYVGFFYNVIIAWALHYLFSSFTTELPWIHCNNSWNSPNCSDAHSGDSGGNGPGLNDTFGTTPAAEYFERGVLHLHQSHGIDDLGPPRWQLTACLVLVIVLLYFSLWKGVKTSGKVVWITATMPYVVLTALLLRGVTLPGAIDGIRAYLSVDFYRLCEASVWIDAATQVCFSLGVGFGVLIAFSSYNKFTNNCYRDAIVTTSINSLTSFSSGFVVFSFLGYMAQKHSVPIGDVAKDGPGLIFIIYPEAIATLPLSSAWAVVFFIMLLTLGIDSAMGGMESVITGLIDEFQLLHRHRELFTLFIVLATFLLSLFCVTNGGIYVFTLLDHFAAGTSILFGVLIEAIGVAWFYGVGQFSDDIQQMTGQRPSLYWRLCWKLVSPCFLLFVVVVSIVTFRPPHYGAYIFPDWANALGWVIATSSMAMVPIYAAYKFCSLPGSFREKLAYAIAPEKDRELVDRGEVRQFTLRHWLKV

2β-Carbomethoxy-3 β-[2-furylphenyl]-8-azabicyclo[3.2.1]tropane
SERT binding (SERT; reported by Tamagnan et al): 0.15 nM
DAT binding (DAT; reported by Tamagnan et al): 3.76 nM

2β-carbomethoxy-3β-(2-naphthyl)-8-aza-bicyclo[3.2.1]octanes
inhibition of SERT (SERT): 2.19 nM
inhibition of DAT (DAT): 0.49 nM

COC(=O)C1=C(c2cccc3ccccc23)CC2CCC1O2 (centres unmarked) [oxatropene with 1-naphthyl]
pIC50 (DAT): 5.76

COC(=O)C1=C(c2ccc3cc4ccccc4cc3c2)CC2CCC1O2 (centres unmarked) [oxatropene with 2-anthracenyl]
pIC50 (DAT): < 4.40

COC(=O)C1=C(c2ccc3ccccc3c2)CC2CCC1O2 (centres unmarked) [oxatropene with 2-naphthyl]
pIC50 (DAT): 7.70

(R,S)-3-[2-Benzothiophen-2-yl] -8-oxa-bicyclo[3.2.1]oct-2-ene-2carboxylic acid methyl ester [14m]
selectivity for DAT vs. SERT [1]: 177 fold
